Earlier results as cited in US7935500B2, “Identifying calcineurin activators for treatment of schizophrenia” (Massachusetts Institute of Technology, priority 2002, dated 2011).

Assays:
[1] = test system: IP3 receptors; details: literature studies [29], [30]
[2] = test system: IP3 receptors; details: literature studies [29], [30]; remark: listed apart in the source
[3] = test system: ryanodine receptor; details: literature study [28]
[4] = test system: ryanodine receptor; details: literature study [28]; remark: listed apart in the source

| Structure (SMILES) | effect on calcium influx [1] | effect on binding of [3H]-IP3 to membranes [2] | effect on binding of [3H]-ryanodine to membranes [3] | effect on probability of the channel being open (calcium influx) [4] |
| --- | --- | --- | --- | --- |
| CCN(CC)CCCC(C)Nc1ccnc2cc(Cl)ccc12 (stereo not shown) [chloroquine] | decrease calcium influx | decrease binding of [3H]-IP3 to membranes | – | – |
| Cc1ccc(C(=O)Nc2ccc(S(=O)(=O)O)c3cc(S(=O)(=O)O)cc(S(=O)(=O)O)c23)cc1NC(=O)c1cccc(NC(=O)Nc2cccc(C(=O)Nc3cc(C(=O)Nc4ccc(S(=O)(=O)O)c5cc(S(=O)(=O)O)cc(S(=O)(=O)O)c45)ccc3C)c2)c1 [suramin] | – | – | increase binding of [3H]-ryanodine to membranes | increase the probability of the channel being open |
